Measurements taken from patent US20040081663A1, “Pharmaceutical composition for treatment and prevention of cancer and the preparation thereof” (priority 2002, published 2004).

System: LLC1 tumor cells (Lewis lung cancer cell line)
Assay: Lewis lung (LLC) peritoneal carcinomatosis model, tumor resistance test
Type: in vivo, C57BL/6J mice
Conditions: for number of mice with tumors: 5 mice per group, 26th day, control: all mice; for average size of tumors (width times length): injected daily for 13 days, sacrificed on 26th day, control 12.38
Text: Lewis lung (LLC) peritoneal carcinomatosis model was used for treatment and prevention of cancer in vivo animal tests, referring to Bertram J S, Janik P., Cancer Lett 1980 November;11(1):63-73; Hirazumi A, Furusawa E. Phytother Res. 1999 August;13(5):380-7; Itoh H, Noda H, Amano H, Ito H. Anticancer Res. 1995 September-October;15(5B):1937-47; Wallace P K, Morahan P S., J Leukoc Biol. 1994 July;56(1) :41-51.; Redmond HP, Schuchter L, Bartlett D, Kelly C J, Shou J, Leon P, Daly J M. , J Surg Res. 1992 April;52(4):406-11; Kagawa K, Yamashita T, Tsubura E, Yamamura Y., Cancer Res. 1984 February;44(2):665-70; and Yamamoto T, Yamashita T, Tsubura E., Invasion Metastasis. 1981; 1(1) :71-84.
Twenty male C57BL/6J mice of two month old were separated into four groups for 5 mice/each. Each mouse was inoculated with 1×10^5 LLC1 tumor cells (Lewis lung cancer cell line) by abdominal injection around the thigh on the first day, i.e. day 0. Each group of mice was treated differently for 13 days as described below and treatment was stopped for 12 days. The mice were sacrificed on the 26th day. The abdomen of each mouse was dissected to examine the tumor size. The size of tumor was defined as width times length.
5 mice were used as the control group. The mice in the control group were injected daily with 100 microliters of saline with propylene glycol (3.05 μl propylene glycol in 100 ml normal saline) for 13 days. The treatment was stopped for 12 days and the mice were sacrificed on the 26th day after inoculation with LLC1 tumor cells. All mice had tumors with an average size of 12.38.
Authentic lovastatin sample was prepared and dissolved in saline with […] as indicated above. The dose amount for administration was adjusted according to mice body weight. The dose amount indicated was the proportional equivalent of lovastatin for human subjects of 60 Kg body weight.
Five C57BL/6J mice were inoculated with 1×10^5 LLC1 cells on day 0 as described above. Lovastatin equivalent of 80 mg/person was injected daily on the other side of the abdomen every day for 13 days. The treatment was stopped for 12 days and the mice were sacrificed on the 26th day after inoculation of LLC1 tumor cells. All mice had tumors with an average size of 9.96.
The same procedures of L80 were followed except that the dose amount for administration was changed to 200 mg/day/person equivalent. Three mice had tumors with an average size of 6.8.
The liquid fermentation product obtained from sample 2 was centrifuged 10,000 rpm for 20 minutes. The supernatant was collected and further filtrated with a 0.2 micron filter in sterile condition. The concentration of lovastatin in the derived filtrate was detected as 0.45 mg/ml. The dose amount for administration was adjusted according to mice body weight. The equivalent amount of lovastatin for human subjects was used for mice tumor resistance tests as indicated.
The same procedures of example L80 were followed except that the sample was Monascus composition. The dose amount for administration was equivalent to 80 mg lovastatin/day/person. The filtrate was administrated in the ratio of 60 μl filtrate to 40 μl saline.
The same procedures of example M80 were followed except that the administration sample was Monascus composition. The dose amount for administration was equivalent to 200 mg lovastatin/day/person. The filtrate was administrated in the ratio of 60 μl filtrate to 40 μl saline.

[1] = dose equivalent to 80 mg lovastatin/day/person
[2] = dose equivalent to 200 mg lovastatin/day/person

**Q.** `CC[C@H](C)C(=O)O[C@H]1C[C@@H](C)C=C2C=C[C@H](C)[C@H](CC[C@@H]3C[C@@H](O)CC(=O)O3)[C@H]21` [Lovastatin, lovastatin] was tested. Which “number of mice with tumors” value [1] did it give?
**A.** All

**Q.** And the “average size of tumors (width times length)” value [1]?
**A.** 9.96

**Q.** What about the “number of mice with tumors” value [2] of the same molecule?
**A.** Three

**Q.** And the “average size of tumors (width times length)” value [2]?
**A.** 6.8

**Q.** And the “tumor size (FIG. 6), in words” value (higher dose of lovastatin (L200) and Monascus compositions M80 and M200)?
**A.** smaller tumor sizes
